In publication PMC3776780, “Dual p38/JNK Mitogen Activated Protein Kinase Inhibitors Prevent Ozone-Induced Airway Hyperreactivity in Guinea Pigs” (PLoS ONE, 2013):

Key:
[1] = biological target: AKT3 (Homo sapiens, UniProt Q9Y243); assay: spectrophotometric coupled-enzyme kinase inhibition assay; assay type: biochemical; settings: read-out: Ki or IC50 AKT3
Protocol: (§1) Affinity was measured using a kinase inhibition assay. Compounds were assayed for the inhibition of various kinases using a modification of a spectrophotometric coupled-enzyme assay. In this assay, a fixed concentration of activated kinase (10–40 nM) was incubated with various concentrations of a potential inhibitor dissolved in DMSO for 10 minutes at 30°C in a buffer containing 0.1 M HEPES, pH 7.5, containing 10 mM MgCl2, 2.5 mM phosphoenolpyruvate, 200 µM NADH, 2 mM DTT, 30 µg/mL pyruvate kinase, 10 µg/mL lactate dehydrogenase, and 200 µM–500 µM EGF receptor peptide. The EGF receptor peptide has the sequence […]. The reaction was initiated by the addition of ATP equal to the ATP Km of the kinase, and the assay plate is inserted into the spectrophotometer’s assay plate compartment that was maintained at 30°C. The decrease of absorbance at 340 nm was monitored as a function of time for 10 minutes. The rate data as a function of inhibitor concentration was either fit as an IC50 or to a competitive inhibition kinetic model to determine the compound Ki (see table 1).

[2] = biological target: CDK2 (Homo sapiens, UniProt P24941); assay: as above; assay type: biochemical; settings: read-out: Ki or IC50 CDK2
Protocol: as §1

[3] = biological target: JNK1 (Homo sapiens, UniProt P45983); assay: as above; assay type: biochemical; settings: ATP equal to Km, 30°C
JNK1, sequence (P45983 whole entry, species assumed): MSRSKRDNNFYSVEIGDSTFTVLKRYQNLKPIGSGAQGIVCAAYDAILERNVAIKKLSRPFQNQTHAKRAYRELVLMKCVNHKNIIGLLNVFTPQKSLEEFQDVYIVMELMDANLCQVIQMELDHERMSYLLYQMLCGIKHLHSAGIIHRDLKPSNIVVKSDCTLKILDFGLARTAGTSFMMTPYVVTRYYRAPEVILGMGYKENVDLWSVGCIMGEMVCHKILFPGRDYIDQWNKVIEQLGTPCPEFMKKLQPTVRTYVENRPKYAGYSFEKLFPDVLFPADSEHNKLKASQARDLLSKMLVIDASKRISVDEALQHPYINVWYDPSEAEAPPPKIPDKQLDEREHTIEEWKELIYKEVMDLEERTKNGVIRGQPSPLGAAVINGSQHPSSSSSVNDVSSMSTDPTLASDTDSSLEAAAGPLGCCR
Protocol: as §1

[4] = biological target: JNK2 (Homo sapiens, UniProt P45984); assay: as above; assay type: biochemical; settings: ATP equal to Km, 30°C
JNK2, sequence (P45984 whole entry, species assumed): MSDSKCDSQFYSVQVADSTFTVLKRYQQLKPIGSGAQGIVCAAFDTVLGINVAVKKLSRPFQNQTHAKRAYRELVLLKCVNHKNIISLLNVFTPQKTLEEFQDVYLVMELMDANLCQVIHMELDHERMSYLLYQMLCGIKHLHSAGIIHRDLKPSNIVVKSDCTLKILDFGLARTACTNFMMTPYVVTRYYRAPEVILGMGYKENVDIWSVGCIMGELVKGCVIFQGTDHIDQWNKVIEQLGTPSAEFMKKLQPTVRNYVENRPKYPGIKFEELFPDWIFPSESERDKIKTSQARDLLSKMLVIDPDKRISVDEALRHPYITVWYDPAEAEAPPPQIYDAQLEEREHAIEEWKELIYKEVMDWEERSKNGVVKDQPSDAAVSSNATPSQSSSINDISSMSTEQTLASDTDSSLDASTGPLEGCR
Protocol: as §1

[5] = biological target: KDR (Homo sapiens, UniProt P35968); assay: as above; assay type: biochemical; settings: read-out: Ki or IC50 KDR
KDR, sequence (P35968 20-1356, species assumed): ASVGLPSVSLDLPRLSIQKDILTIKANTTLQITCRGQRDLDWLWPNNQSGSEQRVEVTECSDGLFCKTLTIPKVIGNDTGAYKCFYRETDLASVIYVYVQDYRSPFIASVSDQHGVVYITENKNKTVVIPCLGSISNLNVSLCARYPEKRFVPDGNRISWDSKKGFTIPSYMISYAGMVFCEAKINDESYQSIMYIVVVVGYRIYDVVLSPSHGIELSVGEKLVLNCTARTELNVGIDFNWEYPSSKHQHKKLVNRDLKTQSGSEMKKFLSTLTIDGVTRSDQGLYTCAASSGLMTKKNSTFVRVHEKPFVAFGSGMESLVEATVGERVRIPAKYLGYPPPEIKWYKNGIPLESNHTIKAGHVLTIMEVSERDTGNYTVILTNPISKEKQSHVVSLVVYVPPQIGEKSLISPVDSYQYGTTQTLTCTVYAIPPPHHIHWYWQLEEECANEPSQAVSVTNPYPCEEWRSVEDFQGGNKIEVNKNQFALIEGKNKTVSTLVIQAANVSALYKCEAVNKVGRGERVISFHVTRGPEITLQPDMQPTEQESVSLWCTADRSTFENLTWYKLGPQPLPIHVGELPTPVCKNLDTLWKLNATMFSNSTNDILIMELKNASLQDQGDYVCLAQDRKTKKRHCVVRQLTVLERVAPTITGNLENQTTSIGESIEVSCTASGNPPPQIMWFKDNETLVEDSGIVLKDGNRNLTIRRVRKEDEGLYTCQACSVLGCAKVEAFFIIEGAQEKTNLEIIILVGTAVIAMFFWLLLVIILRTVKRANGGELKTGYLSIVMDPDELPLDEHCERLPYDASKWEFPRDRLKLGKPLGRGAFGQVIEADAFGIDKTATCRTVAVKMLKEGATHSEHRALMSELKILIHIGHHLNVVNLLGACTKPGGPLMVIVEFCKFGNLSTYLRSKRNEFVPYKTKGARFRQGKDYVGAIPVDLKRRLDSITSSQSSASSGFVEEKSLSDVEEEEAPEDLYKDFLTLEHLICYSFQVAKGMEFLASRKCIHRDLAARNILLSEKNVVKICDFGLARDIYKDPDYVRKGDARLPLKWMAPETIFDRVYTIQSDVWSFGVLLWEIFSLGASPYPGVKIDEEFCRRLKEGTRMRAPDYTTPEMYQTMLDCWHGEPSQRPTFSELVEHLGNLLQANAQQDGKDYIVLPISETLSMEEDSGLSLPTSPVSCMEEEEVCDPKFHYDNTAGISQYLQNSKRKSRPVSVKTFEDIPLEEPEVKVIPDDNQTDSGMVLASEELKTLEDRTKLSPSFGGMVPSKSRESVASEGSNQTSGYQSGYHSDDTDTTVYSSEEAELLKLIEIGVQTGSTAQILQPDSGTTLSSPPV
Protocol: as §1

[6] = biological target: T1, MKK6 (Homo sapiens, UniProt P52564); assay: as above; assay type: biochemical; settings: read-out: Ki or IC50 MKK6
T1 sequence (P52564 1-334): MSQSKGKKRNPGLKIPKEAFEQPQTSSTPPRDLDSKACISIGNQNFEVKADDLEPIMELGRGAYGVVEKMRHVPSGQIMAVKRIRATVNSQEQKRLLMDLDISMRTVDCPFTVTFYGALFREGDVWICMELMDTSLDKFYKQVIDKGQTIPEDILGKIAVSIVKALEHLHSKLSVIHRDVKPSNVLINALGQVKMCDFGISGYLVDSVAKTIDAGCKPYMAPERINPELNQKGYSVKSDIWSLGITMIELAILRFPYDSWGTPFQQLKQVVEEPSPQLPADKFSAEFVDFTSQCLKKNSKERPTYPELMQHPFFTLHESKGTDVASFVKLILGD
Protocol: as §1

[7] = biological target: T2, MKK7 (Homo sapiens, UniProt O14733); assay: as above; assay type: biochemical; settings: read-out: Ki or IC50 MKK7
T2 sequence (O14733 1-419): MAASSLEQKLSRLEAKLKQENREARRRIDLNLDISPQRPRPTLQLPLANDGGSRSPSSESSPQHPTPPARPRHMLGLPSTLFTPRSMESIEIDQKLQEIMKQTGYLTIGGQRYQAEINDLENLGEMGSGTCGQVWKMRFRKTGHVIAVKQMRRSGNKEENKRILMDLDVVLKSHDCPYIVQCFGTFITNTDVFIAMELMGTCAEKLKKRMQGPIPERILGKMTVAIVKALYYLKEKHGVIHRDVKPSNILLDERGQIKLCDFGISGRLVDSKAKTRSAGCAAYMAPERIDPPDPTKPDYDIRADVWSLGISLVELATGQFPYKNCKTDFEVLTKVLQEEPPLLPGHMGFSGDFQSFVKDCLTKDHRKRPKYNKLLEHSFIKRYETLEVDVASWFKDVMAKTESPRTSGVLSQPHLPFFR
Protocol: as §1

[8] = biological target: ROCK1 (Homo sapiens, UniProt Q13464); assay: as above; assay type: biochemical; settings: read-out: Ki or IC50 ROCK1
ROCK1, sequence (Q13464 whole entry, species assumed): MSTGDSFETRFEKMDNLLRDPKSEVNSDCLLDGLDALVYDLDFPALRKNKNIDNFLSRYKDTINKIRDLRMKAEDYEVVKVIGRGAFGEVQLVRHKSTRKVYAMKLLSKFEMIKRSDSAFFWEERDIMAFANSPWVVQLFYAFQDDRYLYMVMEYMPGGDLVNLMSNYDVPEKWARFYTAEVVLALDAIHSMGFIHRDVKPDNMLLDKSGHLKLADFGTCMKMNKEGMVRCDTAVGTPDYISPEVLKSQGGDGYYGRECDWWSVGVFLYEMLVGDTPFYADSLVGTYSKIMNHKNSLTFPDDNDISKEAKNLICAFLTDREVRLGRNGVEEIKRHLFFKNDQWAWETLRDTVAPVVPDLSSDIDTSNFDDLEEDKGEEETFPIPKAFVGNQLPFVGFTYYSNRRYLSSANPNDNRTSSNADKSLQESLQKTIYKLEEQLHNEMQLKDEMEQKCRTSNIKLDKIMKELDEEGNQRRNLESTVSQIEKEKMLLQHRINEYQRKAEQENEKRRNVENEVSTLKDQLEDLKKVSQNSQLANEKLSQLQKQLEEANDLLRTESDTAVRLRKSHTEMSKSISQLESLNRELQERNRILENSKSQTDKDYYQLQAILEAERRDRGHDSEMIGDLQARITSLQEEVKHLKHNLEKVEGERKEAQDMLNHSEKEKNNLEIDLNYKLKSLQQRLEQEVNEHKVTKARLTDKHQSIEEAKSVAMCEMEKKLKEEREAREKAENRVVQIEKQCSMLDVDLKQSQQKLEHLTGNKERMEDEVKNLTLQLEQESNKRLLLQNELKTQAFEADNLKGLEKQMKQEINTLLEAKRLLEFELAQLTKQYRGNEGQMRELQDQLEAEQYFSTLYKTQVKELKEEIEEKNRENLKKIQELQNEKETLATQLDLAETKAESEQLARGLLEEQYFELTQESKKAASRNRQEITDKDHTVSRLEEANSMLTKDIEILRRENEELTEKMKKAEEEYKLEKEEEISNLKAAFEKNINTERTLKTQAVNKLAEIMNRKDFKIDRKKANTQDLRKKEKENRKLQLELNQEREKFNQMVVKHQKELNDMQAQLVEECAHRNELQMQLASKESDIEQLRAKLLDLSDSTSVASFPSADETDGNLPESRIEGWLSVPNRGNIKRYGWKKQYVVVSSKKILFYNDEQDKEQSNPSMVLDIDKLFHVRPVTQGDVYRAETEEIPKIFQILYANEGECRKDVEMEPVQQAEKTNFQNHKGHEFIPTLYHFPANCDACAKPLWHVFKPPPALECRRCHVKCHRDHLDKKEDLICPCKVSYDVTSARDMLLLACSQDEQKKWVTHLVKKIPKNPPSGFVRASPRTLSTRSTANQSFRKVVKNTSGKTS
Protocol: as §1

[9] = biological target: p38 (Homo sapiens, UniProt Q16539); assay: as above; assay type: biochemical; settings: ATP equal to Km, 30°C
p38, sequence (Q16539 whole entry): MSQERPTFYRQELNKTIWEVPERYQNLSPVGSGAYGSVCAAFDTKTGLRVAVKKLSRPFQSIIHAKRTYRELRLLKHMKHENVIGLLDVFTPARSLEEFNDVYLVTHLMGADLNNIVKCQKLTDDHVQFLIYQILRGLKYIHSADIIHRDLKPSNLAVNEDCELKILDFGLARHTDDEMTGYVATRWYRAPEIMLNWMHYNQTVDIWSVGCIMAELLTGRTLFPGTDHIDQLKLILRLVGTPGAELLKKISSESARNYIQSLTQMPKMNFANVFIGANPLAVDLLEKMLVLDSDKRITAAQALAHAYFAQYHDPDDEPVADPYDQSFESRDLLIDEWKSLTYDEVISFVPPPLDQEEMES
Protocol: as §1

[10] = baseline cardiovascular and pulmonary parameters one day after ozone or air exposure; assay type: in vivo, guinea pigs; settings: ozone-exposed (2 ppm, 4 h), inhibitor 30 mg/kg ip 1 h before, one day post-exposure, mean ± SEM
Protocol: (§2) Guinea pigs were exposed to 2 ppm ozone or filtered air for 4 hours as described previously. Physiological measurements, airway inflammation, and histological measurements were made one day after a single ozone exposure.
(§3) Animals were given 30 mg/kg intraperitoneally of the dual p38 and JNK MAPK inhibitors V-05-013, V-05-014, or V-05-015 (Vertex Pharmaceuticals, Cambridge, MA) one hour before ozone exposure (Figure 1). These compounds were chosen because of their overall kinase selectivity profile. […] Inhibitors were dissolved in 25% DMSO in phosphate buffered saline (PBS). Air exposed control animals were given 25% DMSO in PBS one hour before ozone exposure.
One day after exposure to ozone, guinea pigs were anesthetized with 1.9 g/kg urethane i.p. (Sigma-Aldrich, St. Louis, MO). This dose produces a deep anesthesia lasting 8–10 hours though no experiments lasted longer than 4 hours.
(§4) Physiological measurements were made as previously described. The jugular veins were cannulated for intravenous administration of drugs and the right carotid artery was cannulated to measure heart rate and blood pressure. Both vagus nerves were cut and distal ends placed on platinum electrodes submerged in liquid paraffin. Animals were tracheostomized, ventilated (1 ml/100 g body weight, 100 breaths per minute) and paralyzed with a constant infusion of succinylcholine (10 µg/kg/min iv, Sigma-Aldrich). Pulmonary inflation pressure was measured at the trachea and bronchoconstriction was measured as the increase in pressure over basal inflation pressure produced by the ventilator.

[11] = test system: ozone-induced airway hyperreactivity mediated by the vagus nerves; assay: vagally induced bronchoconstriction (airway hyperreactivity); assay type: in vivo, guinea pigs; settings: ozone-exposed, 30 mg/kg ip 1 h before ozone, one day post-exposure, vagal stimulation 1–25 Hz
Protocol: as §2, §3, §4
(§5) Electrical stimulation of both vagus nerves (10V, 0.2 ms pulse width, 1–25 Hz, 5 sec duration at 1 minute intervals) produced frequency dependent bronchoconstriction and bradycardia due to release of acetylcholine onto muscarinic receptors.

[12] = test system: vagally mediated falls in heart rate; assay: falls in heart rate in response to vagal stimulation; assay type: in vivo, guinea pigs; settings: ozone-exposed, 30 mg/kg ip 1 h before ozone
Protocol: as §2, §3, §4, §5

AKT3, sequence (Q9Y243 whole entry, species assumed): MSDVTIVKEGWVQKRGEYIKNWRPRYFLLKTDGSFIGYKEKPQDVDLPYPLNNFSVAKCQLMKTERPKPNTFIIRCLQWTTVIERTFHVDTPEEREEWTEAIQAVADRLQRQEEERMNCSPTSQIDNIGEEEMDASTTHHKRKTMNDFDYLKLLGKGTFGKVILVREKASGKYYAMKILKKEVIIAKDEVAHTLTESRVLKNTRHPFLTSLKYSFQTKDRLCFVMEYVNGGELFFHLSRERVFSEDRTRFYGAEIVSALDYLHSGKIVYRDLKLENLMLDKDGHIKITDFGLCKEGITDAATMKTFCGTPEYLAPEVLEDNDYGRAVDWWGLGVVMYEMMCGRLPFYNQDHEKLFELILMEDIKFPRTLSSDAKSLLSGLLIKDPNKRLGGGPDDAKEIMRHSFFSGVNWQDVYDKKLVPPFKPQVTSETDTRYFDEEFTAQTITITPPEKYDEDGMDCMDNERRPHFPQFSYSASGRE

Compound | Ki [1] [nM] | Ki [2] [nM] | Ki [3] [nM] | Ki [4] [nM] | Ki [5] [nM] | Ki [6] [nM] | Ki [7] [nM] | Ki [8] [nM] | IC50 ([9]; read-out: IC50 p38 (footnote: this one value is an IC50, not a Ki)) [nM] | Pulmonary Inflation Pressure (baseline) [10] | effect on ozone-induced potentiation of vagally induced bronchoconstriction [11] | effect on ozone-induced potentiation of vagally mediated falls in heart rate [12] | Ki [9] [nM]
Fc1ccc(-c2noc(CN3CCCCC3)c2-c2ccnc(NC3CCCCC3)n2)cc1 [V-05-015] | > 1000 | > 1000 | 120 | 4 | > 1000 | > 1000 | > 1000 | > 1000 | 8 | 213±7 mmH2O | completely prevented ozone-induced airway hyperreactivity | prevented the ozone-induced potentiation of frequency induced falls in heart rate | –
OC1CCN(Cc2onc(-c3ccc(F)cc3)c2-c2ccnc(NC3CCCCC3)n2)CC1 [V-05-013] | > 1000 | > 1000 | 170 | 10 | > 1000 | > 1000 | > 1000 | > 1000 | – | 190±15 ^‡ mmH2O | completely prevented ozone-induced airway hyperreactivity | prevented the ozone-induced potentiation of frequency induced falls in heart rate | 13
OC[C@@H]1CCCN1Cc1onc(-c2ccc(F)cc2)c1-c1ccnc(NC2CCCCC2)n1 [V-05-014] | > 1000 | > 1000 | 300 | 15 | > 1000 | > 1000 | > 1000 | > 1000 | – | 225±5 mmH2O | completely prevented ozone-induced airway hyperreactivity | prevented the ozone-induced potentiation of frequency induced falls in heart rate | 15
